Biological target: Enoyl-[acyl-carrier-protein] reductase [NADH] (Mycobacterium tuberculosis, UniProt P9WGR1, S94A)

`Oc1cc2ccc1Oc1ccc(cc1)CCc1ccc(c(O)c1)Oc1ccc(cc1)CC2` showed an IC50 of 4.7 µM.
